Reference: patent publication US20230365546A1, “5-SUBSTITUTED INDOLE 3-AMIDE DERIVATIVES, PREPARATION METHOD AND USE THEREOF” (ORIGIANT PHARMACEUTICAL CO., LTD, priority 2020, published 2023)

How the values were obtained:
RIPK1 = RIPK1 (Homo sapiens (Human), UniProt Q13546); assay: In vitro kinase assay (Eurofins Kinase Profiler), IC50; assay type: biochemical; conditions: 0.001-10 μM, read-out: RIPK 1 (IC50)
HT-29 cells = assay: Protection against programmed necrosis of HT-29 cells (TNF α/Smac mimetic/Z-VAD-FMK, CCK8); assay type: cell-based; conditions: Homo sapiens, TNF α/Smac mimetic/Z-VAD-FMK induced 24 h, CCK8, read-out: HT-29 (EC50)
Procedure: In vitro protection against programmed necrosis of HT-29 cells was conducted by ourselves.
DMEM medium was purchased from Gibco Inc., penicillin and streptomycin were purchased from HyClone Inc., TNF α was purchased from PeproTech Inc., Smac mimetic and Z-VAD-FMK were purchased from Selleck Inc., CCK8 was purchased from Medchem Express Inc.
HT-29 cells (colon cancer cells) were cultured in DMEM+10% FBS+Penicillin/Streptomycin medium. During the experiments, HT-29 cells in logarithmic growth phase were harvested, seeded in a 96-well plate at specific numbers per well (typically 8×10^3 cells/well of adherent cells) and cultured overnight in a 37° C., 5% CO2 cell culture incubator. The next day, the compounds to be tested were diluted with culture medium to the corresponding concentrations and added into the corresponding wells of a 96-well plate, with 3 replicate wells for each sample, and a Vehicle control group and a blank Control group containing only culture medium were set at the same time. […] The absorbance was measured at 495 nm wavelength using a microplate reader, and the protection rate of the drug on the cells necrosis was calculated according to the following formula:
Protection rate of cell necrosis=[(X−C0)/(C−C0)]×100%
Wherein, C, C0, and X represent the mean absorbance values of the Vehicle control group, Blank control group and Drug treatment group, respectively.

Chain of RIPK1 (Q13546 whole entry): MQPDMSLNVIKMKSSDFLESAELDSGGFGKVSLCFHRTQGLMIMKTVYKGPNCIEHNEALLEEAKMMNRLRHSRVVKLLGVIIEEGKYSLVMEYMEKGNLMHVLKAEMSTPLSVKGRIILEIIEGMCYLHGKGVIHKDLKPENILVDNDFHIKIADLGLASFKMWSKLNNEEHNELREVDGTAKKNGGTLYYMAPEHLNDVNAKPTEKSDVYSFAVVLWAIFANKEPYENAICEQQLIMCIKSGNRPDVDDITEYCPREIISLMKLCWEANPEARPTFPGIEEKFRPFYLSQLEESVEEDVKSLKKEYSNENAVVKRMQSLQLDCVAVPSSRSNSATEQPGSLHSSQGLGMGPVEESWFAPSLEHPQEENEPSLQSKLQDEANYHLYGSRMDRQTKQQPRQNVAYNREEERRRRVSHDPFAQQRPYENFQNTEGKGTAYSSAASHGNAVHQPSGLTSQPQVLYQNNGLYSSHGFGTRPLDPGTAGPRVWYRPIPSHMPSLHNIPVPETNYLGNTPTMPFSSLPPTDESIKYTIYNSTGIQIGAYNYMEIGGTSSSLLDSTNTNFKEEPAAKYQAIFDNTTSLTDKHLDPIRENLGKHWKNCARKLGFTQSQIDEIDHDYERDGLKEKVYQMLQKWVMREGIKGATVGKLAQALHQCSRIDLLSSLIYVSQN

Row | Structure (SMILES) | IC50 (RIPK1) | EC50 (HT-29 cells)
1 | COc1ccc(CNC(=O)c2c[nH]c3ccc(-c4ccc5nc(NC(=O)C6CC6)sc5c4)cc23)cc1 [Compound 1] | 10 to 100 nM | 10 to 100 nM
2 | O=C(NCc1ccc(F)c(F)c1)c1c[nH]c2ccc(-c3ccc4nc(NC(=O)C5CC5)sc4c3)cc12 [Compound 2] | 10 to 100 nM | 100 to 1000 nM
3 | O=C(NCc1cc(F)cc(F)c1)c1c[nH]c2ccc(-c3ccc4nc(NC(=O)C5CC5)sc4c3)cc12 [Compound 3] | 10 to 100 nM | 10 to 100 nM
4 | O=C(NCc1cccc(F)c1)c1c[nH]c2ccc(-c3ccc4nc(NC(=O)C5CC5)sc4c3)cc12 [Compound 4] | 10 to 100 nM | 10 to 100 nM
5 | O=C(NCc1cc(C(F)(F)F)cc(C(F)(F)F)c1)c1c[nH]c2ccc(-c3ccc4nc(NC(=O)C5CC5)sc4c3)cc12 [Compound 5] | 100 to 1000 nM | ≥ 1000 nM
6 | O=C(NCc1ccc(F)cc1)c1c[nH]c2ccc(-c3ccc4nc(NC(=O)C5CC5)sc4c3)cc12 [Compound 6] | 100 to 1000 nM | 10 to 100 nM
7 | N#Cc1ccc(CNC(=O)c2c[nH]c3ccc(-c4ccc5nc(NC(=O)C6CC6)sc5c4)cc23)cc1 [Compound 7] | 10 to 100 nM | 10 to 100 nM
8 | O=C(NCc1cccc(C(F)(F)F)c1)c1c[nH]c2ccc(-c3ccc4nc(NC(=O)C5CC5)sc4c3)cc12 [Compound 8] | 10 to 100 nM | 1 to 10 nM
9 | O=C(NCc1ccc(F)cc1F)c1c[nH]c2ccc(-c3ccc4nc(NC(=O)C5CC5)sc4c3)cc12 [Compound 9] | 10 to 100 nM | 1 to 10 nM
10 | O=C(NCc1cccc([N+](=O)[O-])c1)c1c[nH]c2ccc(-c3ccc4nc(NC(=O)C5CC5)sc4c3)cc12 [Compound 10] | 100 to 1000 nM | 100 to 1000 nM
11 | O=C(NCc1ccccc1)c1c[nH]c2ccc(-c3ccc4nc(NC(=O)C5CC5)sc4c3)cc12 [Compound 27] | – | 10 to 100 nM

The next lines start with results.

Row | IC50 (RIPK1) | Structure (SMILES) | EC50 (HT-29 cells)
12 | 100 to 1000 nM | COc1cc(CNC(=O)c2c[nH]c3ccc(-c4ccc5nc(NC(=O)C6CC6)sc5c4)cc23)cc(OC)c1 [Compound 11] | ≥ 1000 nM
13 | 100 to 1000 nM | COc1cccc(CNC(=O)c2c[nH]c3ccc(-c4ccc5nc(NC(=O)C6CC6)sc5c4)cc23)c1 [Compound 12] | ≥ 1000 nM
14 | 10 to 100 nM | Cc1ccc(CNC(=O)c2c[nH]c3ccc(-c4ccc5nc(NC(=O)C6CC6)sc5c4)cc23)cc1 [Compound 13] | 1 to 10 nM
15 | ≥ 1000 nM | O=C(NCc1cccc2ccccc12)c1c[nH]c2ccc(-c3ccc4nc(NC(=O)C5CC5)sc4c3)cc12 [Compound 14] | ≥ 1000 nM
16 | 10 to 100 nM | Cc1cccc(CNC(=O)c2c[nH]c3ccc(-c4ccc5nc(NC(=O)C6CC6)sc5c4)cc23)c1 [Compound 15] | 10 to 100 nM
17 | 10 to 100 nM | O=C(NCc1ccc(C(F)(F)F)cc1)c1c[nH]c2ccc(-c3ccc4nc(NC(=O)C5CC5)sc4c3)cc12 [Compound 16] | 10 to 100 nM
18 | 10 to 100 nM | O=C(NCc1ccco1)c1c[nH]c2ccc(-c3ccc4nc(NC(=O)C5CC5)sc4c3)cc12 [Compound 17] | 10 to 100 nM
19 | 10 to 100 nM | O=C(NCc1cccs1)c1c[nH]c2ccc(-c3ccc4nc(NC(=O)C5CC5)sc4c3)cc12 [Compound 18] | 1 to 10 nM
20 | 10 to 100 nM | O=C(NCc1cccc(OC(F)(F)F)c1)c1c[nH]c2ccc(-c3ccc4nc(NC(=O)C5CC5)sc4c3)cc12 [Compound 19] | 1 to 10 nM
21 | ≥ 1000 nM | O=C(NCc1ccncc1)c1c[nH]c2ccc(-c3ccc4nc(NC(=O)C5CC5)sc4c3)cc12 [Compound 20] | ≥ 1000 nM
22 | 10 to 100 nM | O=C(NCc1ccccc1F)c1c[nH]c2ccc(-c3ccc4nc(NC(=O)C5CC5)sc4c3)cc12 [Compound 21] | 1 to 10 nM
23 | 100 to 1000 nM | C[C@H](NC(=O)c1cn(C)c2ccc(-c3ccc4nc(NC(=O)C5CC5)nn4c3)cc12)c1cccc(F)c1 [Compound 90] | –
24 | < 1 nM | C[C@H](NC(=O)c1cn(C)c2ccc(-c3ccc4c(NC(=O)C5CC5)n[nH]c4c3)cc12)c1cccc(F)c1 [Compound 110] | –
